Data reported in patent US20140037625A1, “BIOMARKERS AND METHODS OF TREATMENT” (GENENTECH, INC., priority 2010, published 2014).
Like-named read-outs stand apart in the source and are kept apart here.

Assays:
[1] = test system: NSCLC patients; conditions: cited from earlier work
[2] = test system: patients with second and third-line NSCLC; conditions: for Difference in ORR, % (95% CI): Erlotinib + MetMAb vs Erlotinib + Placebo
From the text: The original protocol for this study was described, e.g., in WO2010/045345; however, the study was later modified to add enrollment of 50 patients with squamous cell histology as follows. […] During this study, patients and treating individuals, including the investigators, were blinded to the treatment assignment of study drug (MetMAb or placebo).
During the study, data on tumor measurement and survival status were collected for evaluation of PFS, overall survival (OS) and overall response rate (ORR). CT scans were obtained at baseline and for the first four cycles at an approximately every 6 week intervals (i.e., every two three-week cycles of MetMAb/placebo). After four cycles, routine CT scans were performed approximately every 9 weeks (every 3 cycles of MetMAb/placebo). FDG-PET imaging is obtained at baseline and at Day 10-14 of Cycle 1. During the course of this study, an Image Reading facility (IRF) evaluated FDG-PET results and determined whether FDG-PET imaging should continue in all participating sites or whether FDG-PET imaging should be confined to a few sites based on data received.
The primary outcome measure of this study was progression free survival (PFS) defined by the Response Evaluation Criteria In Solid Tumors (RECIST)) 1.0 or death from any cause within thirty days of the last treatment.
(a) overall response (OR) (partial response plus complete response) as determined using RECIST 1.0 in Met positive tumors and overall; and
(c) Overall survival (time from randomization until death from any cause within 30 days of the last study treatment).
Kaplan-Meier methodology was used to estimate the median PFS for each treatment arm. The stratification factors were determined by the […] (CRF) data, not by data collected by the interactive voice […] system at the time of randomization unless the CRF data was missing. Estimation of the hazard ration (i.e., the magnitude of the treatment effect and the 95% confidence interval) was determined using a stratified Cox regression model with an indicator variable for MetMAb treatment. The same analysis methods as those described for PFS in “overall” population patients were applied to patients with met positive tumors and to patients with SCC histology. All deaths from any cause within 30 days of the last treatment were included as PFS events. Objective response was defined as a complete or partial response determined on two consecutive occasions greater than or equal to four weeks apart. Patients without a post-baseline tumor assessment were considered non-responders. An estimate of the objective response rate and 95% confidence interval (Blyth-Still-Casella) was calculated for each treatment arm. Confidence intervals for the difference in tumor response rate (Satnes and Snell 1980; Berger and Boos 1994) were calculated. For patients with an objective response, duration of objective response was defined as the time from the initial response to disease progression or death from any cause within 30 days of the last treatment. Methods for handling censoring and for analysis were the same as described for PFS. All secondary efficacy endpoints were assessed for patients with met positive tumors, patients with SCC histology and by “overall” patient population.

[3] = test system: patients with advanced NSCLC; experiment: Exploratory biomarker analyses from OAM4558g (MET FISH, mRNA by qRT-PCR) with outcome; type: in vivo, human
Protocol: MET and EGFR gene copy numbers were evaluated by fluorescent in situ hybridization (FISH). […] True MET amplification was defined as tight gene cluster of greater than or equal to 15 copies of MET in greater than or equal to 10% of tumor cells or a MET/CEP7 ratio of greater than or equal to 2.
MET, HGF, EGFR, AREG, and EREG mRNA expression was evaluated on RNA extracted from macro-dissected tumor tissue slides using the Fluidigm platform. Transcript levels were normalized to the mean of two reference genes that are stably expressed in lung tissue and results are expressed as normalized expression values (2^−ΔCt).
Exploratory tumor biomarkers related to c-Met and/or EGFR signaling were measured by FISH, qRT-PCR or various mutation detection techniques from archival tumor tissue specimens. Plasma HGF levels were measured by ELISA. Analyses with outcome were carried out independent of Met clinical diagnostic status.

[4] = test system: patients with second and third-line NSCLC; conditions: in vivo
From the text: (§1) This study was a Phase II, double-blind, randomized, multicenter trial designed to evaluate the preliminary activity and safety of treatment with MetMAb plus Erlotinib versus Erlotinib plus placebo in second and third-line NSCLC. […] Once 120 patients, comprising the “overall” population were enrolled, eligibility was restricted to patients with squamous cell carcinoma (SCC) histology to ensure that a total of approximately 80 patients with SCC are enrolled in the study. Randomization for the first 120 patients comprising the “overall” population was stratified by smoking status (non-smokers and smokers who have quit more than 10 years ago versus current smokers and smokers who have quit less than 10 years ago), performance status and histology, and randomization for the next 50 SCC patients will be stratified by smoking status and performance status. Treatment in each arm was continued until progression of disease, unacceptable toxicity, or any other discontinuation criterion was met. Upon disease progression, patients randomized to the Erlotinib plus placebo arm were given the option to receive MetMAb (in addition to continuing Erlotinib), provided they continue to meet eligibility criteria. Safety data collected from this cross-over was summarized for hypothesis generating purposes.
(§2) Primary and secondary efficacy analyses included all randomized patients, with patients allocated to the treatment arm to which they were randomized. Safety analyses included all randomized patients who received at least one dose of study treatment, with patients allocated to the treatment arm associated with the regimen actually received. Demographic and baseline characteristics (e.g. age and sex) were summarized using means, standard deviations, medians, and ranges for continuous variables and proportions for categorical variables, as appropriate. Summaries were presented by overall patient population and by treatment arm. The baselines value of any variable were defined as the last available value prior to the first administration of study treatment.
(§3) The dose of MetMAb was 15 mg/kg intravenously on Day 1 of a 3-week cycle. The weight at screening was used to determine the actual dose of MetMAb. The dose of erlotinib was 150 mg by mouth each day of a 3-week cycle. Dosage level for erlotinib may have been reduced to 100 mg (first reduction) or 50 mg (second reduction) for toxicity likely attributable to erlotinib (e.g., rash, diarrhea).

[5] = test system: patients with second and third-line NSCLC; experiment: Phase II trial of MetMAb plus erlotinib versus erlotinib plus placebo: safety, disposition and exposure
From the text: as §1, §2, §3

[6] = Met High, data cut-off Jun. 8, 2010
[7] = Met Low, data cut-off Jun. 8, 2010
[8] = Met diagnostic negative patients, MetMAb+erlotinib vs erlotinib and placebo, data cut-off Nov. 15, 2010
[9] = Met diagnostic positive patients, MetMAb plus erlotinib vs placebo+erlotinib, data cut-off Nov. 15, 2010
[10] = Met diagnostic positive patients, data cut-off Nov. 15, 2010
[11] = Met high patients, MetMAb plus erlotinib vs placebo plus erlotinib, data cut-off Jun. 8, 2010
[12] = Met high patients, data cut-off Jun. 8, 2010
[13] = Met low patients, ME vs erlotinib and placebo, data cut-off Jun. 8, 2010
[14] = Overall, data cut-off Jun. 8, 2010
[15] = overall (ITT) population, MetMAb plus erlotinib vs placebo plus erlotinib, data cut-off Jun. 8, 2010
[16] = overall (ITT) population, MetMAb plus erlotinib vs placebo plus erlotinib, data cut-off Nov. 15, 2010
[17] = Met Diagnostic-Negative, data cut-off Nov. 15, 2010
[18] = Met Diagnostic-Positive, data cut-off Nov. 15, 2010
[19] = all patients, data cut-off Jun. 8, 2010

For Nc1nc2[nH]cc(CCc3ccc(C(=O)N[C@@H](CCC(=O)O)C(=O)O)cc3)c2c(=O)[nH]1 [Pemtrexed], the “efficacy in SCC” value ([1]; NSCLC SCC, Scagliotti et al, 2008) is given as “relatively lower efficacy” and the activity in adenocarcinoma ([1]; NSCLC adenocarcinoma, Scagliotti et al, 2008) is given as “active”.

In the case of “Erlotinib + MetMAb: MetMAb (15 mg/kg IV q3wks) plus erlotinib treatment, interchangeably termed ME”, the “overall survival treatment effect HR (unstratified Cox model)” value (“overall survival treatment effect HR” for short) ([2]; 10% Met diagnostic positive and not Met diagnostic positive using the 50% cutoff) is reported as 2.83, the “overall survival treatment effect HR” value ([2]; 10% Met diagnostic positive patients (>=10% tumor cells IHC 2+ or 3+)) is reported as 0.52 and the “overall survival treatment effect HR” value ([2]; 90% Met diagnostic positive patients) is reported as 0.30. The “Difference in ORR, % (95% CI)” value [2, 6] was 5.2 (−6.0-16.5) %, the “# pts PD by RECIST” value [2, 6] was “n = 17” and the “No. of patients with OR (%)” value [2, 6] was 3 (8.6) No. of patients (%). The “Pattern of progression: PD by new lesions” value [2, 6] was 9 (52.9), the “Pattern of progression: PD on target lesions” value [2, 6] was 11 (64.7) and the “PFS benefit by subgroup” value ([2]; Met IHC status 0 and 1 patients, data cut-off Jun. 8, 2010) was “did not benefit”. For the same compound, the “PFS benefit by subgroup” value ([2]; Met IHC status 3 and 2 patients, data cut-off Jun. 8, 2010) was “showed benefit”, the “# pts PD by RECIST” value [2, 7] was “n = 15” and the “Pattern of progression: PD by new lesions” value [2, 7] was 7 (46.7). The “Pattern of progression: PD on target lesions” value [2, 7] was 11 (73.3), the “OS benefit by subgroup” value ([2]; Met diagnostic negative IHC status 0 and 1 patients, data cut-off Nov. 15, 2010) was “did not benefit” and the “OS HR” value [2, 8] was 1.78. For the same compound, the “PFS HR” value [2, 8] was 1.82, the “OS benefit by subgroup” value ([2]; Met diagnostic positive IHC status 3 and 2 patients, data cut-off Nov. 15, 2010) was “showed benefit” and the “OS Hazard ratio (HR)” value [2, 9] was 0.37. The “PFS Hazard ratio (HR)” value [2, 9] was 0.53, the “median OS” value [2, 10] was 12.6 months and the “median PFS” value [2, 10] was 2.9 months. For the same compound, the “overall survival treatment effect HR” value ([2]; Met diagnostic positive using 50% cutoff) was 0.38, the “overall survival treatment effect HR” value ([2]; Met diagnostic positive using 50% cutoff and not 90% Met diagnostic positive) was 0.75 and the “OS benefit by subgroup” value ([2]; Met high IHC status 3 and 2 patients, data cut-off Jun. 8, 2010) was “showed benefit”. For the same compound, the “OS Hazard ratio (HR)” value [2, 11] was 0.55, the “PFS Hazard ratio (HR)” value [2, 11] was 0.56 and the “median OS” value [2, 12] was 7.7 weeks. The “median PFS” value [2, 12] was 12.4 weeks, the “OS HR” value ([2]; Met high population excluding patients with known EGFR mutations, relative to placebo+erlotinib, data cut-off Jun. 8, 2010) was 0.55 and the “OS benefit by subgroup” value ([2]; Met low IHC status 0 and 1 patients, data cut-off Jun. 8, 2010) was “did not benefit”. The “OS HR” value [2, 13] was 3.26, the “PFS HR” value [2, 13] was 2.01 and the “patients progressed by the first assessment (CAT scan at week 6)” value ([2]; Met low patients, data cut-off Jun. 8, 2010) was about 70%. For the same compound, the “patients progressed by the first assessment (CAT scan at week 6)” value ([2]; Met low patients, data cut-off Nov. 15, 2010) was about 70%, the “Difference in ORR, % (95% CI)” value [2, 14] was 1.6 (−6.3-9.4) % and the “No. of patients with OR (%)” value [2, 14] was 4 (6.3) No. of patients (%). The “OS HR” value [2, 15] was 1.09, the “PFS HR” value [2, 15] was 1.09 and the “OS Hazard ratio” value [2, 16] was 0.8. For the same compound, the “PFS Hazard ratio” value [2, 16] was 1.09, the Objective response rate ([2]; overall population, data cut-off Jun. 8, 2010) was 6.3% and the “outcome HR” value ([3]; AREG mRNA High, MetMAb + Erlotinib vs Placebo + Erlotinib) was 0.77. For the same compound, the “outcome Median (mo)” value ([3]; AREG mRNA Low (median 7.11)) was 6.5 mo, the “outcome HR” value ([3]; AREG mRNA Low, MetMAb + Erlotinib vs Placebo + Erlotinib) was 1.31 and the “outcome Median (mo)” value ([3]; EGFR mRNA High (median 7.75)) was 7.1 mo. For the same compound, the “outcome HR” value ([3]; EGFR mRNA High, MetMAb + Erlotinib vs Placebo + Erlotinib) was 1.1, the “outcome Median (mo)” value ([3]; EGFR mRNA Low (median 7.75)) was 11.7 mo and the “outcome HR” value ([3]; EGFR mRNA Low, MetMAb + Erlotinib vs Placebo + Erlotinib) was 0.88. For the same compound, the “outcome Median (mo)” value ([3]; EREG mRNA High (median 0.26)) was 10.2 mo, the “outcome HR” value ([3]; EREG mRNA High, MetMAb + Erlotinib vs Placebo + Erlotinib) was 0.67 and the “outcome Median (mo)” value ([3]; EREG mRNA Low (median 0.26)) was 8.1 mo. The “outcome HR” value ([3]; EREG mRNA Low, MetMAb + Erlotinib vs Placebo + Erlotinib) was 1.34, the “outcome Median (mo)” value ([3]; MET mRNA High (median 3.16)) was 8.7 mo and the “outcome HR” value ([3]; MET mRNA High, MetMAb + Erlotinib vs Placebo + Erlotinib) was 0.59. The “outcome Median (mo)” value ([3]; MET mRNA Low (median 3.16)) was 11.7 mo, the “outcome HR” value ([3]; MET mRNA Low, MetMAb + Erlotinib vs Placebo + Erlotinib) was 1.48 and the “All adverse events: Dyspnea” value [4] was 7 (20.0) n (%). The “Grade 3-5 adverse events: Pneumonia” value [4] was 1 (2.9) n (%), the “Patient disposition: Adverse events” value [4] was 7 (10.9) n (%) and the “Safety: tolerability” value [4] was “well-tolerated”. The “Summary of safety data: Adverse events leading to death” value ([5]; Met Diagnostic Negative, data cut-off Nov. 15, 2010) was 3 (9.7) No. of patients (%), the “Summary of safety data: Adverse events leading to death” value ([5]; Met Diagnostic Positive, data cut-off Nov. 15, 2010) was 1 (2.9) No. of patients (%) and the “Patient disposition: Death” value [5, 17] was 2 (6.5) No. of patients (%). The “Patient disposition: Disease progression” value [5, 17] was 22 (71.0) No. of patients (%), the “Patient disposition: Death” value [5, 18] was 0 No. of patients (%) and the “Patient disposition: Disease progression” value [5, 18] was 18 (51.4) No. of patients (%). For the same compound, the “Summary of safety: AEs leading to death” value [5, 6] was 1 (2.9) n (%), the “All adverse events: Dyspnea” value [5, 7] was 4 (14.8) n (%) and the “Summary of safety: AEs leading to death” value [5, 7] was 4 (14.8) n (%). For the same compound, the “Grade 3-5 adverse events: Pneumonia” value ([5]; Met low, data cut-off Jun. 8, 2010) was 4 (14.8) n (%), the “Patient disposition: Deaths” value [5, 19] was 2 (3.1) n (%) and the “Patient disposition: Disease progression” value [5, 19] was 34 (53.1) n (%).

In the case of “MetMAb: known recombinant, humanized, monovalent monoclonal antibody directed against c-met”, the “OS HR” value ([3]; EGFR-wildtype patients that were Met diagnostic positive and MET FISH negative) is reported as 0.45, the “outcome HR” value ([3]; EGFR-wildtype patients, MET FISH positive at lower threshold ≧4 copies) is reported as 0.89 and the “frequency of peripheral edema in MetMAb treated arms” value ([5]; both Met diagnostic positive and diagnostic negative populations, data cut-off Nov. 15, 2010) is reported as “higher”.

In the case of bevacizumab: anti-VEGF antibody, the bleeding risk ([1]; in vivo) is given as “increased bleeding risk”.
